Our source for the Emax and EC50 values is US8299048B2, “Hexahydrocyclopentyl[f]indazole sulfonamides and derivatives thereof as selective glucocorticoid receptor modulators” (Merck Sharp & Dohme Corp., priority 2008, dated 2012).

SMILES strings stand for the structures.

This assay has as its target T1, human GR (Homo sapiens, UniProt P04150).
T1 sequence (P04150 1-777): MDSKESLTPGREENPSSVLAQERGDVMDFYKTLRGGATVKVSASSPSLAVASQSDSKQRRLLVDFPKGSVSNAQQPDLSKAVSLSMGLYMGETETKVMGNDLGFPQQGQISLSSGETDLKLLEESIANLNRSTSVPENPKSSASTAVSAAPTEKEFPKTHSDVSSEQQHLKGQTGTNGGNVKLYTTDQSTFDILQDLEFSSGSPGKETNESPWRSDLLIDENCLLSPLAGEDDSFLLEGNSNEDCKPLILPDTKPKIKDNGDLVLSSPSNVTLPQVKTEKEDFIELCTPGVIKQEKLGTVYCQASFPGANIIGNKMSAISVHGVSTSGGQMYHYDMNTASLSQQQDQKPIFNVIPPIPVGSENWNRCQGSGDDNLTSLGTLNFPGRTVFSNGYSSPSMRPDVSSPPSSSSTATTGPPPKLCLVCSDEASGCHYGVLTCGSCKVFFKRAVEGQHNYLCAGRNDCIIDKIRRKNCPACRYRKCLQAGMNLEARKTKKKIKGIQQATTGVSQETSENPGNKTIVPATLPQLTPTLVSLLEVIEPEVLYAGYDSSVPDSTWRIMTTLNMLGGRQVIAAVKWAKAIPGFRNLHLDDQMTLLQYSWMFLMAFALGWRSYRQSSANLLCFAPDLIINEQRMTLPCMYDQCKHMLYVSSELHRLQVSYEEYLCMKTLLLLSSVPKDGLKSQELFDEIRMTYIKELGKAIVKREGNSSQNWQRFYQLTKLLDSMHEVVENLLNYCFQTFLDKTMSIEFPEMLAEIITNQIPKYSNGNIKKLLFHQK
Description: Trans-Activation Modulation of Glucocorticoid Receptor (GRAMMER), MMTV-LUC reporter, agonist mode. More on the design: endogenous in cells. Type of assay: cell-based. As to conditions: for Emax: A549, A549 cells, maximum activity, read-out: Transactivation A549 Cells GRAMMER Emax; for EC50: A549 cells, inflection point, read-out: Transactivation A549 Cells GRAMMER IP. The method in brief: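 Readout is luciferase from a modified MMTV LTR promoter after 24 h compound exposure alongside 10 nM dexamethasone (100% activity reference), DMSO ≤1%.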

The term Emax denotes the greatest response seen or fitted, relative to the assay's reference. Turning to `C[C@@H](O)CN(C[C@H]1CCC2=Cc3c(cnn3-c3ccc(F)cc3)C[C@@]21C)S(=O)(=O)c1ccc(F)c(Cl)c1` [Example 115, 3-chloro-4-fluoro-N-{[(4αR,5S)-1-(4-fluorophenyl)-4α-methyl-1,4,4α,5,6,7-hexahydrocyclopenta[f]indazol-5-yl]methyl}-N-[(2R)-2-hydroxypropyl]benzenesulfonamide], the Emax was 26.1% and the EC50 came out at 0.786 µM.

Consider `C[C@]12Cc3cnn(-c4ccc(F)cc4)c3C=C1CC[C@@H]2CN(CCc1ccccc1O)S(=O)(=O)c1ccccc1F` [Example 116, 2-fluoro-N-{[(4αR,5S)-1-(4-fluorophenyl)-4α-methyl-1,4,4α,5,6,7-hexahydrocyclopenta[f]indazol-5-yl]methyl}-N-[2-(2-hydroxyphenyl)ethyl]benzenesulfonamide], for which the maximal effect (Emax) was 73.5% and the EC50 was found to be 0.676 µM.

In the case of `C[C@]12Cc3cnn(-c4ccc(F)cc4)c3C=C1CC[C@@H]2CN(CCO)S(=O)(=O)c1ccccc1C(N)=O` [Example 117, 2-{[{[(4αR,5S)-1-(4-fluorophenyl)-4α-methyl-1,4,4α,5,6,7-hexahydrocyclopenta[f]indazol-5-yl]methyl}(2-hydroxyethyl)amino]sulfonyl}benzamide], the maximal effect (Emax) amounted to 45.1% and the EC50 amounted to 0.449 µM.

As for `COCCN(C[C@H]1CCC2=Cc3c(cnn3-c3ccc(F)cc3)C[C@@]21C)S(=O)(=O)CCN1C(=O)c2ccccc2C1=O` [Example 118, 2-(1,3-dioxo-1,3-dihydro-2H-isoindol-2-yl)-N-{[(4αR,5S)-1-(4-fluorophenyl)-4α-methyl-1,4,4α,5,6,7-hexahydrocyclopenta[f]indazol-5-yl]methyl}-N-(2-methoxyethyl)ethanesulfonamide], the Emax worked out at 8.7% and the EC50 amounted to 0.853 µM.

Turning to `COc1ccccc1CCN(C[C@H]1CCC2=Cc3c(cnn3-c3ccc(F)cc3)C[C@@]21C)S(=O)(=O)Cc1cccc(C(F)(F)F)c1` [Example 119, N-{[(4αR,5S)-1-(4-fluorophenyl)-4α-methyl-1,4,4α,5,6,7-hexahydrocyclopenta[f]indazol-5-yl]methyl}-N-[2-(2-methoxyphenyl)ethyl]-1-[3-(trifluoromethyl)phenyl]methanesulfonamide], the Emax was 6.6% and the EC50 worked out at 0.202 µM.

On to `COc1ccccc1CCN(C[C@H]1CCC2=Cc3c(cnn3-c3ccc(F)cc3)C[C@@]21C)S(=O)(=O)CC(F)(F)F` [Example 120, 2,2,2-trifluoro-N-{[(4αR,5S)-1-(4-fluorophenyl)-4α-methyl-1,4,4α,5,6,7-hexahydrocyclopenta[f]indazol-5-yl]methyl}-N-[2-(2-methoxyphenyl)ethyl]ethanesulfonamide], for which the Emax came out at 73.2% and the EC50 was found to be 0.11 µM.

Regarding `C[C@]12Cc3cnn(-c4ccc(F)cc4)c3C=C1CC[C@@H]2CN(CCc1ccccc1F)S(=O)(=O)CCN1C(=O)c2ccccc2C1=O` [Example 121, 2-(1,3-dioxo-1,3-dihydro-2H-isoindol-2-yl)-N-[2-(2-fluorophenyl)ethyl]-N-{[(4αR,5S)-1-(4-fluorophenyl)-4α-methyl-1,4,4α,5,6,7-hexahydrocyclopenta[f]indazol-5-yl]methyl}ethanesulfonamide], the Emax was found to be 15.9% and the EC50 was 0.242 µM.

`C[C@]12Cc3cnn(-c4ccc(F)cc4)c3C=C1CC[C@@H]2CN(CCc1ccccc1O)S(=O)(=O)Cc1cccc(C(F)(F)F)c1` [Example 122, N-{[(4αR,5S)-1-(4-fluorophenyl)-4α-methyl-1,4,4α,5,6,7-hexahydrocyclopenta[f]indazol-5-yl]methyl}-N-[2-(2-hydroxyphenyl)ethyl]-1-[3-(trifluoromethyl)phenyl]methanesulfonamide]: the maximal response (Emax) came to 8.9% and the EC50 was found to be 0.502 µM.

In the case of `Cc1noc(C)c1S(=O)(=O)N(CCc1ccccc1O)C[C@H]1CCC2=Cc3c(cnn3-c3ccc(F)cc3)C[C@@]21C` [Example 123, N-{[(4αR,5S)-1-(4-fluorophenyl)-4α-methyl-1,4,4α,5,6,7-hexahydrocyclopenta[f]indazol-5-yl]methyl}-N-[2-(2-hydroxyphenyl)ethyl]-3,5-dimethylisoxazole-4-sulfonamide], the maximal response (Emax) amounted to 65.4% and the EC50 turned out to be 0.195 µM.

For `C[C@]12Cc3cnn(-c4ccc(F)cc4)c3C=C1CC[C@@H]2CN(CCc1ccccc1F)S(=O)(=O)Cc1cccnc1` [Example 124, N-[2-(2-fluorophenyl)ethyl]-N-{[(4αR,5S)-1-(4-fluorophenyl)-4α-methyl-1,4,4α,5,6,7-hexahydrocyclopenta[f]indazol-5-yl]methyl}-1-pyridin-3-ylmethanesulfonamide], the Emax was 99.2% and the EC50 is 0.218 µM.

`COc1ccccc1CCN(C[C@H]1CCC2=Cc3c(cnn3-c3ccc(F)cc3)C[C@@]21C)S(=O)(=O)Cc1cccnc1` [Example 125, N-{[(4αR,5S)-1-(4-fluorophenyl)-4α-methyl-1,4,4α,5,6,7-hexahydrocyclopenta[f]indazol-5-yl]methyl}-N-[2-(2-methoxyphenyl)ethyl]-1-pyridin-3-ylmethanesulfonamide]: the Emax is 21.2% and the EC50 was 0.508 µM.

Consider `COc1cccc(CCN(C[C@H]2CCC3=Cc4c(cnn4-c4ccc(F)cc4)C[C@@]32C)S(=O)(=O)CC(F)(F)F)c1` [Example 126, 2,2,2-trifluoro-N-{[(4αR,5S)-1-(4-fluorophenyl)-4α-methyl-1,4,4α,5,6,7-hexahydrocyclopenta[f]indazol-5-yl]methyl}-N-[2-(3-methoxyphenyl)ethyl]ethanesulfonamide], for which the Emax was determined as 78.2% and the EC50 worked out at 0.227 µM.

Turning to `COc1ccc(CCN(C[C@H]2CCC3=Cc4c(cnn4-c4ccc(F)cc4)C[C@@]32C)S(=O)(=O)CC(F)(F)F)cc1` [Example 127, 2,2,2-trifluoro-N-{[(4αR,5S)-1-(4-fluorophenyl)-4α-methyl-1,4,4α,5,6,7-hexahydrocyclopenta[f]indazol-5-yl]methyl}-N-[2-(4-methoxyphenyl)ethyl]ethanesulfonamide], the maximum response (Emax) turned out to be 67.9% and the EC50 was 0.232 µM.

In the case of `C[C@]12Cc3cnn(-c4ccc(F)cc4)c3C=C1CC[C@@H]2CN(CCc1ccccn1)S(=O)(=O)CC(F)(F)F` [Example 128, 2,2,2-trifluoro-N-{[(4αR,5S)-1-(4-fluorophenyl)-4α-methyl-1,4,4α,5,6,7-hexahydrocyclopenta[f]indazol-5-yl]methyl}-N-(2-pyridin-2-ylethyl)ethanesulfonamide], the Emax is 69.1% and the EC50 was found to be 0.252 µM.

In the case of `C[C@]12Cc3cnn(-c4ccc(F)cc4)c3C=C1CC[C@@H]2CN(CCc1ccncc1)S(=O)(=O)CC(F)(F)F` [Example 129, 2,2,2-trifluoro-N-{[(4αR,5S)-1-(4-fluorophenyl)-4α-methyl-1,4,4α,5,6,7-hexahydrocyclopenta[f]indazol-5-yl]methyl}-N-(2-pyridin-4-ylethyl)ethanesulfonamide], the maximal response (Emax) was determined as 67.2% and the EC50 was found to be 0.948 µM.

In the case of `C[C@]12Cc3cnn(-c4ccc(F)cc4)c3C=C1CC[C@@H]2CN(CCc1ccc(O)cc1)S(=O)(=O)CC(F)(F)F` [Example 130, 2,2,2-trifluoro-N-{[(4αR,5S)-1-(4-fluorophenyl)-4α-methyl-1,4,4α,5,6,7-hexahydrocyclopenta[f]indazol-5-yl]methyl}-N-[2-(4-hydroxyphenyl)ethyl]ethanesulfonamide], the maximal effect (Emax) turned out to be 66.1% and the EC50 was found to be 0.369 µM.

For `C[C@]12Cc3cnn(-c4ccc(F)cc4)c3C=C1CC[C@@H]2CN(CCc1ccccc1O)S(=O)(=O)Cc1cccnc1` [Example 131, N-{[(4αR,5S)-1-(4-fluorophenyl)-4α-methyl-1,4,4α,5,6,7-hexahydrocyclopenta[f]indazol-5-yl]methyl}-N-[2-(2-hydroxyphenyl)ethyl]-1-pyridin-3-ylmethanesulfonamide], the maximum response (Emax) was found to be 37.4% and the EC50 was 0.571 µM.

As to `C[C@]12Cc3cnn(-c4ccc(F)cc4)c3C=C1CC[C@@H]2CN(Cc1cccnn1)S(=O)(=O)CC(F)(F)F` [Example 132, 2,2,2-trifluoro-N-{[(4αR,5S)-1-(4-fluorophenyl)-4α-methyl-1,4,4α,5,6,7-hexahydrocyclopenta[f]indazol-5-yl]methyl}-N-(pyridazin-3-ylmethyl)ethanesulfonamide], the Emax turned out to be 23.2% and the EC50 is 0.421 µM.

On to `C[C@]12Cc3cnn(-c4ccc(F)cc4)c3C=C1CC[C@@H]2CN(CC(O)C(F)F)S(=O)(=O)CC(F)(F)F` (stereo partly drawn) [Example 133, N-(3,3-difluoro-2-hydroxypropyl)-2,2,2-trifluoro-N-{[(4αR,5S)-1-(4-fluorophenyl)-4α-methyl-1,4,4α,5,6,7-hexahydrocyclopenta[f]indazol-5-yl]methyl}ethanesulfonamide], for which the Emax stood at 73.4% and the EC50 is 0.0675 µM.
